This is an account of results in patent US8178677B2, “Hydroxyalkyl substituted imidazoquinolines” (3M Innovative Properties Company, priority 2005, dated 2012).

Each structure is given as a SMILES string. Where a name gives a salt, the structure may show the parent alone. Read-outs that look alike come from different tables or passages of the source.

Series [1] relates to tumor necrosis factor (α) (TNF-α) induction in human peripheral blood mononuclear cells (PBMC). Kind of series: Cytokine induction in human cells (PBMC): TNF-α secreted into culture media, ORIGEN M-Series immunoassay. Particulars: for minimal effective concentration: Homo sapiens, PBMC, read-out: Minimum Effective Concentration (μM) TNF; for Maximal Response (pg/mL) TNF: background-subtracted. It counts as cell-based. The text has this:
(§1) Cytokine Induction in Human Cells
(§2) An in vitro human blood cell system is used to assess cytokine induction. Activity is based on the measurement of interferon (α) and tumor necrosis factor (α) (IFN-α and TNF-α, respectively) secreted into culture media as described by Testerman et. al. in “Cytokine Induction by the Immunomodulators Imiquimod and S-27609”, Journal of Leukocyte Biology, 58, 365-372 (September, 1995).
(§3) Blood Cell Preparation for Culture
(§4) Whole blood from healthy human donors is collected by venipuncture into vacutainer tubes or syringes containing EDTA. Peripheral blood mononuclear cells (PBMC) are separated from whole blood by density gradient centrifugation using HISTOPAQUE-1077 (Sigma, St. Louis, Mo.) or Ficoll-Paque Plus (Amersham Biosciences Piscataway, N.J.). Blood is diluted 1:1 with Dulbecco's Phosphate Buffered Saline (DPBS) or Hank's Balanced Salts Solution (HBSS). Alternately, whole blood is placed in Accuspin (Sigma) or LeucoSep (Greiner Bio-One, Inc., Longwood, Fla.) centrifuge frit tubes containing density gradient medium. The PBMC layer is collected and washed twice with DPBS or HBSS and re-suspended at 4×10^6 cells/mL in RPMI complete. The PBMC suspension is added to 96 well flat bottom sterile tissue culture plates containing an equal volume of RPMI complete media containing test compound.
(§5) The compounds are solubilized in dimethyl sulfoxide (DMSO). The DMSO concentration should not exceed a final concentration of 1% for addition to the culture wells. The compounds are generally tested at concentrations ranging from 30-0.014 μM. Controls include cell samples with media only, cell samples with DMSO only (no compound), and cell samples with reference compound.
(§6) The solution of test compound is added at 60 μM to the first well containing RPMI complete and serial 3 fold dilutions are made in the wells. The PBMC suspension is then added to the wells in an equal volume, bringing the test compound concentrations to the desired range (usually 30-0.014 μM). The final concentration of PBMC suspension is 2×10^6 cells/mL. The plates are covered with sterile plastic lids, mixed gently and then incubated for 18 to 24 hours at 37° C. in a 5% carbon dioxide atmosphere.
(§7) Following incubation the plates are centrifuged for 10 minutes at 1000 rpm (approximately 200×g) at 4° C. The cell-free culture supernatant is removed and transferred to sterile polypropylene tubes. Samples are maintained at −30 to −70° C. until analysis. The samples are analyzed for IFN-α by ELISA and for TNF-α by IGEN/BioVeris Assay.
(§8) Interferon (α) and Tumor Necrosis Factor (α) Analysis
The TNF-α concentration is determined by ORIGEN M-Series Immunoassay and read on an IGEN M-8 analyzer from BioVeris Corporation, formerly known as IGEN International, Gaithersburg, Md. The immunoassay uses a human TNF-α capture and detection antibody pair (Catalog Numbers AHC3419 and AHC3712) from Biosource International, Camarillo, Calif. Results are expressed in pg/mL.
(§9) In total, the data output of the assay consists of concentration values of TNF-α and IFN-α (y-axis) as a function of compound concentration (x-axis).
Analysis of the data has two steps. First, the greater of the mean DMSO (DMSO control wells) or the experimental background (usually 20 pg/mL for IFN-α and 40 pg/mL for TNF-α) is subtracted from each reading. If any negative values result from background subtraction, the reading is reported as “*”, and is noted as not reliably detectable. In subsequent calculations and statistics, “*”, is treated as a zero. Second, all background subtracted values are multiplied by a single adjustment ratio to decrease experiment to experiment variability. The adjustment ratio is the area of the reference compound in the new experiment divided by the expected area of the reference compound based on the past 61 experiments (unadjusted readings). […]

Series [2] concerns interferon (α) (IFN-α) induction in human peripheral blood mononuclear cells (PBMC). Briefly: Cytokine induction in human cells (PBMC): IFN-α secreted into culture media, ELISA. It counts as cell-based. Particulars: read-out: Minimum Effective Concentration (μM) IFN.
From the text: as §1, §2, §3, §4, §5, §6, §7, §8
IFN-α concentration is determined with a human multi-subtype calorimetric sandwich ELISA (Catalog Number 41105) from PBL Biomedical Laboratories, Piscataway, N.J. Results are expressed in pg/mL.
as §9
Analysis of the data has two steps. First, the greater of the mean DMSO (DMSO control wells) or the experimental background (usually 20 pg/mL for IFN-α and 40 pg/mL for TNF-α) is subtracted from each reading. If any negative values result from background subtraction, the reading is reported as “*”, and is noted as not reliably detectable. In subsequent calculations and statistics, “*”, is treated as a zero. Second, all background subtracted values are multiplied by a single adjustment ratio to decrease experiment to experiment variability. The adjustment ratio is the area of the reference compound in the new experiment divided by the expected area of the reference compound based on the past 61 experiments (unadjusted readings). […] The reference compound used is 2-[4-amino-2-ethoxymethyl-6,7,8,9-tetrahydro-α,α-dimethyl-1H-imidazo[4,5-c]quinolin-1-yl]ethanol hydrate (U.S. Pat. No. 5,352,784; Example 91) and the expected area is the sum of the median dose values from the past 61 experiments. […]

[3] abbreviates: 18 to 24 hours incubation, tested 30-0.014 μM, lowest concentration inducing response over 40 pg/mL TNF-α, median of # experiments.
[4] abbreviates: lowest tested concentration inducing TNF-α over 40 pg/mL, median where more than one experiment.
Setting [5] is: 18 to 24 hours incubation, tested 30-0.014 μM, lowest concentration inducing response over 20 pg/mL IFN-α, median of # experiments.
The mark [6] stands for this setting: lowest tested concentration inducing IFN-α over 20 pg/mL, median where more than one experiment.
[7] abbreviates: maximal response in dose response curve, reference-adjusted, median where more than one experiment, * = below background of 40 pg/mL.

Consider `COCCc1nc2c(N)nc3ccccc3c2n1CC(C)(C)NS(C)(=O)=O` [Analog 5, N-{2-[4-Amino-2-(2-methoxyethyl)-1H-imidazo[4,5-c]quinolin-1-yl]-1,1-dimethylethyl}methanesulfonamide, reference compound], for which the minimal effective concentration in series [1] (setting [3]) came to 0.12 µM; in series [1] (setting [4]), 0.12 µM; in series [2] (setting [5]), 0.014 µM; in series [2] (setting [6]), 0.014 µM.
Molecule `CS(=O)(=O)NCCCCn1c(CCO)nc2c(N)nc3ccccc3c21` [Example 3, N-{4-[4-Amino-2-(2-hydroxyethyl)-1H-imidazo[4,5-c]quinolin-1-yl]butyl}methanesulfonamide] registered a melting point of 206 to 208 °C. The minimal effective concentration in series [1] (setting [4]) was greater than 30 µM. In addition, the “Maximal Response (pg/mL) TNF” value in series [1] (setting [7]) was “* (TNF below experimental background of 40 pg/mL.)”. In series [2] (setting [6]), the minimal effective concentration came out at 0.37 µM.
In turn, `Nc1nc2ccccc2c2c1nc(CO)n2CC1CCOCC1` [Example 150, [4-Amino-1-(tetrahydro-2H-pyran-4-ylmethyl)-1H-imidazo[4,5-c]quinolin-2-yl]methanol] gave a melting point of 239 to 241 °C.
`CC(C)(Cn1c(CCO)nc2c(N)nc3ccccc3c21)NS(C)(=O)=O` [Example 6, N-{2-[4-Amino-2-(2-hydroxyethyl)-1H-imidazo[4,5-c]quinolin-1-yl]-1,1-dimethylethyl}methanesulfonamide] came in with a melting point of 209 to 212 °C. Besides, in series [1] (18 to 24 hours incubation, reference-adjusted maximal response of dose response curve, median of # experiments), the “Maximal Response (pg/mL) TNF” value was “* (TNF below experimental background of 40 pg/mL.)”. Moreover, in series [1] (setting [3]), the minimal effective concentration was greater than 30 µM. Further, the minimal effective concentration in series [1] (setting [4]) turned out to be 30 µM. Further, the “Maximal Response (pg/mL) TNF” value in series [1] (setting [7]) was “* (TNF below experimental background of 40 pg/mL.)”. The minimal effective concentration in series [2] (setting [5]) turned out to be 1.11 µM. Besides, the minimal effective concentration in series [2] (setting [6]) turned out to be 1.11 µM.
In turn, `CC(C)C(=O)NCCCCn1c(CO)nc2c(N)nc3ccccc3c21` (as salt: salt) [Example 146, N-[4-(4-amino-2-hydroxymethyl-1H-imidazo[4,5-c]quinolin-1-yl)butyl]isobutyramide] showed a melting point of 222 to 224 °C.
In the case of `CC(C)(Cn1c(CO)nc2c(N)nc3ccccc3c21)NS(C)(=O)=O` [Example 7, N-[2-(4-Amino-2-hydroxymethyl-1H-imidazo[4,5-c]quinolin-1-yl)-1,1-dimethylethyl]methanesulfonamide], the melting point lay within 262 to 265 °C. Moreover, the minimal effective concentration in series [1] (setting [3]) came to 30 µM. In series [1] (setting [4]), the minimal effective concentration came out at 30 µM. For the same molecule, in series [2] (setting [5]), the minimal effective concentration is 3.33 µM. Besides, the minimal effective concentration in series [2] (setting [6]) worked out at 3.33 µM.
`CC(C)(Cn1c(CO)nc2c(N)nc3ccccc3c21)NC(=O)C1CCCCC1` [Example 5, N-[2-(4-Amino-2-hydroxymethyl-1H-imidazo[4,5-c]quinolin-1-yl)-1,1-dimethylethyl]cyclohexanecarboxamide] had a melting point of 248 to 250 °C. In series [1] (setting [4]), the minimal effective concentration was 10 µM. In series [2] (setting [6]), the minimal effective concentration turned out to be 0.37 µM.
The corresponding values for `CC(C)C(=O)NCCCn1c(CCO)nc2c(N)nc3ccccc3c21` [Example 141, N-{3-[4-Amino-2-(2-hydroxyethyl)-1H-imidazo[4,5-c]quinolin-1-yl]propyl}-2-methylpropionamide] are 196 to 198 °C, 30 µM and 0.04 µM.
Take `Cc1nc2c(N)nc3ccccc3c2n1CC(C)(C)NS(C)(=O)=O` [Analog 1, N-[2-(4-Amino-2-methyl-1H-imidazo[4,5-c]quinolin-1-yl)-1,1-dimethylethyl]methanesulfonamide, reference compound]: the minimal effective concentration in series [1] (setting [3]) was determined as 3.33 µM; in series [1] (setting [4]), 3.33 µM; in series [2] (setting [5]), 0.37 µM; in series [2] (setting [6]), 0.37 µM.
The molecule `CC(C)[C@H](NC(=O)OCc1ccccc1)C(=O)OCc1nc2c(N)nc3ccccc3c2n1CCCCNS(C)(=O)=O` [Example 148, (4-Amino-1-{4-[(methylsulfonyl)amino]butyl}-1H-imidazo[4,5-c]quinolin-2-yl)methyl N-[(benzyloxy)carbonyl]-L-valinate] came in with a melting point of 99 to 100 °C.
Consider `CC(C)[C@H](N)C(=O)OCc1nc2c(N)nc3ccccc3c2n1CCCCNS(C)(=O)=O` [Example 149, (4-Amino-1-{4-[(methylsulfonyl)amino]butyl}-1H-imidazo[4,5-c]quinolin-2-yl)methyl L-valinate], for which the melting point was 161 to 163 °C.
For the molecule `CCOCc1nc2c(N)nc3ccccc3c2n1CC(C)(C)NS(C)(=O)=O` [Analog 4, N-[2-(4-Amino-2-ethoxymethyl-1H-imidazo[4,5-c]quinolin-1-yl)-1,1-dimethylethyl]methanesulfonamide, reference compound], the minimal effective concentration in series [1] (setting [3]) was 0.37 µM; in series [1] (setting [4]) it was 0.37 µM; in series [2] (setting [5]) it was 0.04 µM; in series [2] (setting [6]), 0.04 µM.
Molecule `Nc1nc2ccccc2c2c1nc(CO)n2CCCCNC(=O)C1CCCC1` [Example 145, N-{4-[4-amino-2-(hydroxymethyl)-1H-imidazo[4,5-c]quinolin-1-yl]butyl}cyclopentanecarboxamide] yielded a melting point of 183 to 186 °C.
For `CCc1nc2c(N)nc3ccccc3c2n1CC(C)(C)NS(C)(=O)=O` [Analog 2, N-[2-(4-Amino-2-ethyl-1H-imidazo[4,5-c]quinolin-1-yl)-1,1-dimethylethyl]methanesulfonamide, reference compound], the minimal effective concentration in series [1] (setting [3]) came out at 1.11 µM; in series [1] (setting [4]), 1.11 µM; in series [2] (setting [5]), 0.12 µM; in series [2] (setting [6]), 0.12 µM.
As for `CCCc1nc2c(N)nc3ccccc3c2n1CC(C)(C)NS(C)(=O)=O` [Analog 3, N-[2-(4-Amino-2-propyl-1H-imidazo[4,5-c]quinolin-1-yl)-1,1-dimethylethyl]methanesulfonamide, reference compound], the minimal effective concentration was 0.37 µM in series [1] (setting [3]), 0.37 µM in series [1] (setting [4]), 0.12 µM in series [2] (setting [5]) and 0.12 µM in series [2] (setting [6]).

As usually defined, the melting point is the temperature of the solid-liquid transition.
